Experimental data as given in ChEMBL document CHEMBL3585305, “Structure-Based Design and Optimization of Multitarget-Directed 2H-Chromen-2-one Derivatives as Potent Inhibitors of Monoamine Oxidase B and Cholinesterases” (J Med Chem, 2015).
Active and inactive are the calls of the source. The rule behind the calls is not given here.

Assays:
Rattus norvegicus = organism: Rattus norvegicus; experiment: Selectivity index, ratio of IC50 for rat brain MAO-A to IC50 for rat brain MAO-B
[1] = target: T1, Amine oxidase [flavin-containing] A (Homo sapiens, UniProt P21397); experiment: Inhibition of human recombinant MAO-A using kynuramine substrate by spectrophotometric assay
T1 sequence (P21397 whole entry): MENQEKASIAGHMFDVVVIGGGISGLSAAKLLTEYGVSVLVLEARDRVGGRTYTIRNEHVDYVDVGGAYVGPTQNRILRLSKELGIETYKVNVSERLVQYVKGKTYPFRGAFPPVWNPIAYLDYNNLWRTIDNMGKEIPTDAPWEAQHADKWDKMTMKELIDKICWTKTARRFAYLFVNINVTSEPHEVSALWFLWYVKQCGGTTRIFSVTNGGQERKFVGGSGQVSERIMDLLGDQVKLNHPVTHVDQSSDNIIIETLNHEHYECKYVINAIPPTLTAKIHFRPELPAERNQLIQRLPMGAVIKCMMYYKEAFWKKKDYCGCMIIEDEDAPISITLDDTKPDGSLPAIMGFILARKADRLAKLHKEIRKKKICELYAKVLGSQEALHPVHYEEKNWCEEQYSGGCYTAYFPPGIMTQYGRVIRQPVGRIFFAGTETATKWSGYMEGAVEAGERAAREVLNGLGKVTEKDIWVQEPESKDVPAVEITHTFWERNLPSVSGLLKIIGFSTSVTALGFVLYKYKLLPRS

[2] = target: T2, Amine oxidase [flavin-containing] B (Rattus norvegicus, UniProt P19643); experiment: Inhibition of rat brain MAO-B using kynuramine substrate […] by spectrophotometric assay
T2 sequence (P19643 whole entry): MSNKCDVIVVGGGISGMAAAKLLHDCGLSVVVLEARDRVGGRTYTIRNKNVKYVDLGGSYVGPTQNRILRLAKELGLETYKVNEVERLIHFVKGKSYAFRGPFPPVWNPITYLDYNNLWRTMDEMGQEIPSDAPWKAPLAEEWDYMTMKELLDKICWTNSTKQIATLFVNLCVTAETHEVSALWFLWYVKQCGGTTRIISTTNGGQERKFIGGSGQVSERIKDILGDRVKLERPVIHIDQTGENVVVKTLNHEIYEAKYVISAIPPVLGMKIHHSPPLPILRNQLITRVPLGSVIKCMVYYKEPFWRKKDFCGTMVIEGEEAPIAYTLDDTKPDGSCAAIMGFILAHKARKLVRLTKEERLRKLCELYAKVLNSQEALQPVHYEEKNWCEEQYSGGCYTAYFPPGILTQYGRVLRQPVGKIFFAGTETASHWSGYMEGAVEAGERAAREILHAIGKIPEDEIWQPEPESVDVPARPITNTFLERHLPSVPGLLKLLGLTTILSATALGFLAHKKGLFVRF

Acetylcholinesterase [3] = target: T3, Acetylcholinesterase (Electrophorus electricus, UniProt O42275); experiment: Mixed type inhibition of electric eel AChE by Lineweaver-Burk plot
[4] = target: T4, Amine oxidase [flavin-containing] A (Rattus norvegicus, UniProt P21396); experiment: Inhibition of rat brain MAO-A using kynuramine substrate […] by spectrophotometric assay
T4 sequence (P21396 whole entry): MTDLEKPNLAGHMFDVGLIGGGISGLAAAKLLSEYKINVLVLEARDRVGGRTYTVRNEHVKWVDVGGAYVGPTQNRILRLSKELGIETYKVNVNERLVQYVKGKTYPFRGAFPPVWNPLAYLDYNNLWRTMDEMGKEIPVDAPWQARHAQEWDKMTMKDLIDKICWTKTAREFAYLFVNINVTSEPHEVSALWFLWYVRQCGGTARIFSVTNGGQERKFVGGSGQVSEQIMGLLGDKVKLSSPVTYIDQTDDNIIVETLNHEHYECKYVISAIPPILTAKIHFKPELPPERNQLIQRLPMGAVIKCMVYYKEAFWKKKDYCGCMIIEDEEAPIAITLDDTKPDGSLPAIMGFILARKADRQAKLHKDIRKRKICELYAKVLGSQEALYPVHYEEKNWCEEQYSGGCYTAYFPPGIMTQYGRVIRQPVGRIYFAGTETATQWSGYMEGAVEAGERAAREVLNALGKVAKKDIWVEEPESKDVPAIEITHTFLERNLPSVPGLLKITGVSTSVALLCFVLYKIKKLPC

Cholinesterase [5] = target: Cholinesterase (Equus caballus, UniProt P81908); experiment: Inhibition of equine serum BuChE by spectrophotometric Ellman's method
Cholinesterase [6] = target: T5, Cholinesterase (Homo sapiens, UniProt P06276); experiment: Inhibition of human serum BuChE by spectrophotometric Ellman's method
Acetylcholinesterase [7] = target: Acetylcholinesterase (Homo sapiens, UniProt P22303); experiment: Inhibition of human recombinant AChE by spectrophotometric Ellman's method
[8] = target: T6, Amine oxidase [flavin-containing] B (Homo sapiens, UniProt P27338)
T6 sequence (P27338 whole entry): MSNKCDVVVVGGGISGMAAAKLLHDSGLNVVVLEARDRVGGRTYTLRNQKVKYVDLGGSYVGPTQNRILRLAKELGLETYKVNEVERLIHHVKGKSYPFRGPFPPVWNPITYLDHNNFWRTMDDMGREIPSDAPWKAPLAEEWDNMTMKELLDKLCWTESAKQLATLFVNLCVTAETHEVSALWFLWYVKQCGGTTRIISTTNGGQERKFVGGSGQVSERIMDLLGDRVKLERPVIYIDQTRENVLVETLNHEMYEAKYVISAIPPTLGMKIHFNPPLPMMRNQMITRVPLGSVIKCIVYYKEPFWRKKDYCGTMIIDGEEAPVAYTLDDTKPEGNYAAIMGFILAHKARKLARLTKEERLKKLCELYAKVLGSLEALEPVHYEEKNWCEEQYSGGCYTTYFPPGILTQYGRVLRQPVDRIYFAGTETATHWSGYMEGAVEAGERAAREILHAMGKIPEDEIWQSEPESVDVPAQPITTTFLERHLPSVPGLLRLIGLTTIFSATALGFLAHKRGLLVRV
Description: Inhibition of human recombinant MAO-B using kynuramine substrate by spectrophotometric assay

Acetylcholinesterase [9] = target: T3, Acetylcholinesterase; experiment: Inhibition of electric eel AChE by spectrophotometric Ellman's method
Cholinesterase [10] = target: T5, Cholinesterase; experiment: Inhibition of human serum BuChE at 10 uM by spectrophotometric Ellman's method
[11] = target: T4, Amine oxidase [flavin-containing] A; experiment: Inhibition of rat brain MAO-A using kynuramine substrate […] at 10 uM by spectrophotometric assay
[12] = target: T1, Amine oxidase [flavin-containing] A; experiment: Inhibition of human recombinant MAO-A using kynuramine substrate at 10 uM by spectrophotometric assay
[13] = target: T6, Amine oxidase [flavin-containing] B; experiment: Inhibition of human recombinant MAO-B using kynuramine substrate at 10 uM by spectrophotometric assay
[14] = target: T2, Amine oxidase [flavin-containing] B; experiment: Inhibition of rat brain MAO-B using kynuramine substrate […] at 10 uM by spectrophotometric assay
[15] = target: T1, Amine oxidase [flavin-containing] A; experiment: Inhibition of human recombinant MAO-A using kynuramine substrate at 4 uM by spectrophotometric assay
MDR1 [16] = experiment: Efflux ratio of apparent permeability from basolateral to apical side to apical to basolateral side in MDCK2 cells expressing MDR1 at 200 ug/ml by UV-visible spectroscopy; format: ADME, cell-based, Canis lupus familiaris, MDCK-II; settings: dog, MDCK-MDR1
MDR1 [17] = experiment: Apparent permeability from apical to basolateral side in MDCK2 cells expressing MDR1 at 200 ug/ml by UV-visible spectroscopy; format: ADME, cell-based, Canis lupus familiaris, MDCK-II; settings: dog, MDCK-MDR1
MDR1 [18] = experiment: Apparent permeability from basolateral to apical side in MDCK2 cells expressing MDR1 at 200 ug/ml by UV-visible spectroscopy; format: ADME, cell-based, Canis lupus familiaris, MDCK-II; settings: dog, MDCK-MDR1
SH-SY5Y [19] = experiment: Neuroprotective activity in human SH-SY5Y cells assessed as inhibition H2O2-induced reduction of cell survival at 1 uM after 24 hrs by MTT assay; format: functional, cell-based
SH-SY5Y [20] = experiment: Neuroprotective activity in human SH-SY5Y cells assessed as inhibition H2O2-induced reduction of cell survival at 10 uM after 24 hrs by MTT assay; format: functional, cell-based

Acetylcholinesterase (Homo sapiens, UniProt P22303), sequence (P22303 whole entry): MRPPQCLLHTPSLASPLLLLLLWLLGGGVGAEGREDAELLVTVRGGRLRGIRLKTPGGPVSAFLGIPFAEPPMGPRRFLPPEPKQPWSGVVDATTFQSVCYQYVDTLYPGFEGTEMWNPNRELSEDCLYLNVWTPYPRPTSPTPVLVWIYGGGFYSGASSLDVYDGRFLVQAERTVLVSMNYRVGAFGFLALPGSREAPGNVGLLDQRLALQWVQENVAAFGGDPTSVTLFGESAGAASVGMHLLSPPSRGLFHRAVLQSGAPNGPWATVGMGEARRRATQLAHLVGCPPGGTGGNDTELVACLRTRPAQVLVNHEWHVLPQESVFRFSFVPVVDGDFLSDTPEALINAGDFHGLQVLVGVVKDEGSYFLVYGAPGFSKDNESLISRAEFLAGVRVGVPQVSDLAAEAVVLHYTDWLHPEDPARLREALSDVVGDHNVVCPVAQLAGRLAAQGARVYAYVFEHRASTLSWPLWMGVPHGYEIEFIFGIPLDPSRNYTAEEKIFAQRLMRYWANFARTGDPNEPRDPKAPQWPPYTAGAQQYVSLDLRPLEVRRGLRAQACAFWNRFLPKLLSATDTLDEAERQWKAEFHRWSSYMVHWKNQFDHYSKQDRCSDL
Cholinesterase (Equus caballus, UniProt P81908), sequence (P81908 whole entry): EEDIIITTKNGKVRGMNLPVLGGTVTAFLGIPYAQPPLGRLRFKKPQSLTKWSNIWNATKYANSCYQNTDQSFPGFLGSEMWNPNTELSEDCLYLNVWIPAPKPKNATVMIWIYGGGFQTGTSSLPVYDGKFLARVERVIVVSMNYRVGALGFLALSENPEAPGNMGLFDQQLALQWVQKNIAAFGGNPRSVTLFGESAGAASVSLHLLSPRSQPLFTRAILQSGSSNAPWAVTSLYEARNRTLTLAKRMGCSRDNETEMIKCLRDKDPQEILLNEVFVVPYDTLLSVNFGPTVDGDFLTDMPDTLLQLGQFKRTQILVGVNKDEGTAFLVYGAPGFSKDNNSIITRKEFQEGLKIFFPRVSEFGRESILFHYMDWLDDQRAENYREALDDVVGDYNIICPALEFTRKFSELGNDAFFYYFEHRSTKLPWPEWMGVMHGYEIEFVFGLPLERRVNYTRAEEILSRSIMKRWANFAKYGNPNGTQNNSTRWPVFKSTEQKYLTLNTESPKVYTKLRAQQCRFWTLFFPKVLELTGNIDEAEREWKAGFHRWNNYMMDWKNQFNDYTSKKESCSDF
T5 sequence (P06276 whole entry): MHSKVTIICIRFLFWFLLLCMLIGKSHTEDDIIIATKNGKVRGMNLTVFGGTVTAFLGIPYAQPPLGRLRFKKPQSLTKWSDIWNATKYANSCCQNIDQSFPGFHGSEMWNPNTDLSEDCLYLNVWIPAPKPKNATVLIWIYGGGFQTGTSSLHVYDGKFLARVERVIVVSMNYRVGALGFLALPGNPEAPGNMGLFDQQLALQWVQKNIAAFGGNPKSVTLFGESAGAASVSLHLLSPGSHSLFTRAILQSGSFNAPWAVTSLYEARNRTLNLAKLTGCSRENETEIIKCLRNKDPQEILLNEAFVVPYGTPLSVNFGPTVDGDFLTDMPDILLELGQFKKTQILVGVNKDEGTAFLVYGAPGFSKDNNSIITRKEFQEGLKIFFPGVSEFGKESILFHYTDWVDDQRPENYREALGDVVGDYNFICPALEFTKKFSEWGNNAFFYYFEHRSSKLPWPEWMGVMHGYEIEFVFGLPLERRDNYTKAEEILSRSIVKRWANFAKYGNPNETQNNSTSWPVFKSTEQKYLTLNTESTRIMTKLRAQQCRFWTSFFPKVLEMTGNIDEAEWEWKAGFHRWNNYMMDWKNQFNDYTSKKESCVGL
T3 sequence (O42275 whole entry): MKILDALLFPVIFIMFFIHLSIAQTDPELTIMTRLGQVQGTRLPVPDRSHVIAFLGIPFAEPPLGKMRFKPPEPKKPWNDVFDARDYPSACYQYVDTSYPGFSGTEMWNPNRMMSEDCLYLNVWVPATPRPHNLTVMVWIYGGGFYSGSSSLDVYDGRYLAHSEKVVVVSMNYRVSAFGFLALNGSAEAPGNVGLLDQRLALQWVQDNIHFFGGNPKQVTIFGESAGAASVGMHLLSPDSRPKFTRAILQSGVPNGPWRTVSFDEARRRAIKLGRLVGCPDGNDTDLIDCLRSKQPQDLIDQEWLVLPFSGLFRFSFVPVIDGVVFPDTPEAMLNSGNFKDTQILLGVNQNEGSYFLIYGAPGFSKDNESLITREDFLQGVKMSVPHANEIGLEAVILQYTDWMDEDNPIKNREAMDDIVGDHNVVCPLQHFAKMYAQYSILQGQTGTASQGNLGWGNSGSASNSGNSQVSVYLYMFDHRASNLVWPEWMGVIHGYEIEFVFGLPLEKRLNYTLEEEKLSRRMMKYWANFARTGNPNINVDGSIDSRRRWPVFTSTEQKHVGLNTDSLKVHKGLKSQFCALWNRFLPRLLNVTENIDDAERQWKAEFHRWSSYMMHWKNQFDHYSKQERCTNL

| SMILES | IC50 [1] | IC50 [2] | IC50 [4] | IC50 (Cholinesterase [5]) | IC50 (Acetylcholinesterase [7]) | IC50 [8] | IC50 (Acetylcholinesterase [9]) | inhibition at 10 µM [11] | further results |
| --- | --- | --- | --- | --- | --- | --- | --- | --- | --- |
| Cc1c(C)c2ccc(OCCCCCCN(C)Cc3ccccc3)cc2oc1=O | 191 nM | 1700 nM | 510 nM | 670 nM | 340 nM | 321 nM | 95 nM |  | Ratio IC50 (Rattus norvegicus): 0.3; Ki (Acetylcholinesterase [3]): 80 nM; IC50 (Cholinesterase [6]): 950 nM |
| Cc1c(C)c2ccc(OCc3ccc(CN(C)Cc4ccccc4)cc3)cc2oc1=O | 4300 nM | 1200 nM |  | 690 nM | 450 nM | 53 nM | 100 nM | 0% | inhibition (Cholinesterase [10]): 46% |
| CCN(CCCCCCOc1ccc2c(C)c(C)c(=O)oc2c1)Cc1ccccc1 | 115 nM | 720 nM | 2100 nM | 490 nM | 440 nM | 18 nM | 320 nM |  | Ratio IC50 (Rattus norvegicus): 3 |
| COc1cc2c(cc1OC)C(=O)C(CC1CCN(Cc3ccccc3)CC1)C2 (configuration not stated) [DONEPEZIL] |  |  |  |  |  |  |  |  | inhibition at 10 µM [12]: 0%; inhibition at 10 µM [13]: 0% |
| Cc1c(C)c2ccc(OCCCCCNCc3ccccc3)cc2oc1=O | 390 nM | 500 nM | 2200 nM | 1800 nM | 300 nM | 29 nM | 940 nM |  | IC50 (Cholinesterase [6]): 950 nM |
| CN(Cc1ccccc1)Cc1ccc(COc2ccc3ccc(=O)[nH]c3c2)cc1 |  |  |  | 1700 nM | 1500 nM | 4500 nM | 490 nM | 10% | inhibition at 10 µM [14]: 29%; inhibition at 4 µM [15]: 14% |
| CN(Cc1ccccc1)Cc1ccc(COc2ccc3c(CO)cc(=O)oc3c2)cc1.Cl |  |  |  |  |  |  |  | 0% | efflux ratio at 200 ug/ml (MDR1 [16]): 1.77; Papp A→B at 200 ug/ml (MDR1 [17]): 19.1 ×10⁻⁶ cm/s; Papp B→A at 200 ug/ml (MDR1 [18]): 33.8 ×10⁻⁶ cm/s; Activity (SH-SY5Y [19]): Active; Activity (SH-SY5Y [20]): Active |
| CN(Cc1ccc(COc2ccc3c(CO)cc(=O)oc3c2)cc1)Cc1cccc(Cl)c1 | 13000 nM | 240 nM |  | 630 nM | 330 nM | 24 nM | 250 nM | 0% | inhibition (Cholinesterase [10]): 14% |
